Patent US8791102B2, “Acetanilide sphingosine-1-phosphate receptor antagonists” (Exelixis, Inc., priority 2008, dated 2014)

Biological target: T1, human S1P1 receptors (Homo sapiens, UniProt P21453)
T1 construct: host or cells: HEK293
Assay: S1P1R antagonist assay (fluorescent membrane potential dye, cAMP readout)
Type: cell-based
Conditions: HEK293 cells expressing human S1P1 receptors and CNG channel; 500 nM NECA; S1P1R agonist 10 nM; 90 minutes; read-out: EC50 or IC50 value
From the text: The S1P1R antagonist assay is a fluorescent membrane potential dye measurement assay, indicative of intracellular cAMP changes due to G protein-coupled receptor activation. HEK293 cells engineered to express human S1P1 receptors and a cyclic nucleotide-gated (CNG) channel are obtained from BD Biosciences, 80300-250. The CNG channels are activated by elevated levels of cAMP, resulting in ion flux and cell membrane depolarization. Membrane depolarization is detected with a membrane potential dye. Stimulation of the cells with 5′-(N-ethylcarboxamido)adenosine (NECA), an A2b receptor agonist (Sigma, E2387), elicits an A2bR-dependent increase in cAMP.
Subsequent exposure of the cells to a S1P1R agonist suppresses the NECA induced increase in cAMP through S1P1R-specific signaling by inhibiting adenylyl cyclase and the formation of cAMP from ATP. The degree to which a test compound overcomes the S1P1R agonist suppression of the NECA induced increase in cAMP is a measure of S1P1R antagonist activity. Antagonist activity is quantified as the IC50 (i.e., the concentration needed to elicited one-half of the maximum response of the test compound) and/or as the EC50 (i.e., the concentration needed to elicited one-half of the NECA induced stimulation).
Day 1: Freshly thawed cells were plated into 384-well plates (Corning, 3683) at a density of 14,000 cells/well in 20 μL, complete media and incubated for 16 hours at 37° C., 5% CO2 and 99% relative humidity. Complete media included Dulbecco's modified Eagle's medium (Invitrogen, 11965-092), 10% Fetal bovine serum (Hyclone, SH30071.03), 250 μg/mL geneticin (Invitrogen, 10131-027), and 1 μg/mL Puromycin (Fluka, 82595).
Day 2: Membrane potential dye (20 μL, BD Biosciences, 341833) was added to each well and the plates were incubated for 2.5 hours at ambient temperature. Test compounds (20 μL) were added to the wells at various concentrations (≦10 μM, 1 to 3 dilutions) in a NECA base solution and incubated for 90 minutes in the presence of the S1P1R agonist {4-((4-phenyl-5-trifluoromethyl-2-thienyl)methoxy)benzyl}-3-azetidinecarboxylic acid (10 nM). The NECA-base solution contained Dulbecco's phosphate-buffered saline (Invitrogen, 14190-136), 2.5% DMSO (Fluka, 41648), 25 μM Ro 20-1724 (Sigma, B8279), and 500 nM NECA).
Assay plates were read with a PerkinElmer EnVision reader (Excitation 350 nm, Emission 590 nm) at time T=0 minutes, before compound addition and at time T=90 minutes. The signal was calculated as the ratio T90/T0. Data was analyzed in ActivityBase XE and graphs showing log of compound concentration (X-axis) vs. % activity (Y-axis) were generated for IC50 determinations. Percent activity was calculated with the following formula: (Signal−Agonist Control Signal)/(NECA Control Signal−Agonist Control Signal)×100.

T1 sequence (P21453 whole entry): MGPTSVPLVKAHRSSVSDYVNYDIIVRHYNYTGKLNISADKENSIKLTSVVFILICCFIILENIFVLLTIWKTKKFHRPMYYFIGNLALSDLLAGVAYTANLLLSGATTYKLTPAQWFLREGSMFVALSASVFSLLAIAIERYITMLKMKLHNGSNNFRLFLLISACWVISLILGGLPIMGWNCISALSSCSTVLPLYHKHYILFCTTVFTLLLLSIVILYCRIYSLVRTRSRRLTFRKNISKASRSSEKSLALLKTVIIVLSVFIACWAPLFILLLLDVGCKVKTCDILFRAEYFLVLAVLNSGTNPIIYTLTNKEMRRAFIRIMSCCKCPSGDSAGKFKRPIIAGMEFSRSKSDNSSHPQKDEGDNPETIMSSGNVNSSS

| SMILES | IC50 |
| --- | --- |
| CCCCOCC(=O)N1C[C@H](Cc2ccccc2)C[C@H]1C(=O)Nc1ccc(Oc2ccc(F)cc2)cc1 [Compound 38, (2S,4R)-4-benzyl-1-(2-butoxyacetyl)-N-(4-(4-fluorophenoxy)phenyl)pyrrolidine-2-carboxamide] | ≤ 300 nM |
| O=C(CN1CCN(c2ncccn2)CC1)N[C@@H](COCc1ccccc1)C(=O)Nc1ccc(Oc2ccc(F)cc2)cc1 [Compound 41, (S)-3-(benzyloxy)-N-(4-(4-fluorophenoxy)phenyl)-2-(2-(4-(pyrimidin-2-yl)piperazin-1-yl)acetamido)propanamide] | > 1000 nM |
| COc1cccc(N2CCN(CC(=O)N[C@@H](COCc3ccccc3)C(=O)Nc3ccc(Oc4ccc(F)cc4)cc3)CC2)c1 [Compound 42, (S)-3-(benzyloxy)-N-(4-(4-fluorophenoxy)phenyl)-2-(2-(4-(3-methoxyphenyl)piperazin-1-yl)acetamido)propanamide] | > 1000 nM |
| O=C(CN1CCC(N2CCCC2)CC1)N[C@@H](COCc1ccccc1)C(=O)Nc1ccc(Oc2ccc(F)cc2)cc1 [Compound 43, (S)-3-(benzyloxy)-N-(4-(4-fluorophenoxy)phenyl)-2-(2-(4-(pyrrolidin-1-yl)piperidin-1-yl)acetamido)propanamide] | > 1000 nM |
| O=C(Cc1coc(-c2ccccc2)n1)N[C@@H](COCc1ccc(F)cc1)C(=O)Nc1ccc(Oc2ccc(F)cc2)cc1 [Compound 44, (S)-3-(4-fluorobenzyloxy)-N-(4-(4-fluorophenoxy)phenyl)-2-(2-(2-phenyloxazol-4-yl)acetamido)propanamide] | > 1000 nM |
| O=C(CN1CCCC2CCCCC21)N[C@@H](COCc1ccccc1)C(=O)Nc1ccc(Oc2ccc(F)cc2)cc1 (stereo partly drawn) [Compound 45, (2S)-3-(benzyloxy)-N-(4-(4-fluorophenoxy)phenyl)-2-(2-(octahydroquinolin-1(2H)-yl)acetamido)propanamide] | > 1000 nM |
| CC1CCCN(CC(=O)N[C@@H](COCc2ccccc2)C(=O)Nc2ccc(Oc3ccc(F)cc3)cc2)C1 (stereo partly drawn) [Compound 46, (2S)-3-(benzyloxy)-N-(4-(4-fluorophenoxy)phenyl)-2-(2-(3-methylpiperidin-1-yl)acetamido)propanamide] | > 1000 nM |
| Cc1cc(Oc2ccc(F)cc2)ccc1NC(=O)[C@H](COCc1ccccc1)NC(=O)Cc1cnc[nH]1 [Compound 47, (S)-2-(2-(1H-imidazol-5-yl)acetamido)-3-(benzyloxy)-N-(4-(4-fluorophenoxy)-2-methylphenyl)propanamide] | > 1000 nM |
| O=C(Nc1ccc(Oc2ccc(F)cc2)cc1)[C@@H]1C[C@@H](Cc2cccc(F)c2)CN1C(=O)Cn1cncn1 [Compound 51, (2S,4R)-1-(2-(1H-1,2,4-triazol-1-yl)acetyl)-4-(3-fluorobenzyl)-N-(4-(4-fluorophenoxy)phenyl)pyrrolidine-2-carboxamide] | ≤ 300 nM |
| O=C(Nc1ccc(Oc2ccc(F)cc2)cc1)[C@@H]1C[C@@H](Cc2ccc(F)cc2F)CN1C(=O)Cn1nccn1 [Compound 52, (2S,4R)-1-(2-(2H-1,2,3-triazol-2-yl)acetyl)-4-(2,4-difluorobenzyl)-N-(4-(4-fluorophenoxy)phenyl)pyrrolidine-2-carboxamide] | ≤ 300 nM |
| O=C(Nc1ccc(Oc2ccc(F)cc2)cc1)[C@@H]1C[C@@H](Cc2ccc(F)cc2F)CN1C(=O)Cn1cncn1 [Compound 53, (2S,4R)-1-(2-(1H-1,2,4-triazol-1-yl)acetyl)-4-(2,4-difluorobenzyl)-N-(4-(4-fluorophenoxy)phenyl)pyrrolidine-2-carboxamide] | ≤ 300 nM |

Next, values leading:

| IC50 | SMILES |
| --- | --- |
| ≤ 300 nM | O=C(Nc1ccc(Oc2ccc(F)cc2)cc1)[C@@H]1C[C@@H](Cc2ccccc2)CN1C(=O)Cc1ccccc1 [Compound 31, (2S,4R)-4-benzyl-N-(4-(4-fluorophenoxy)phenyl)-1-(2-phenylacetyl)pyrrolidine-2-carboxamide] |
| ≤ 300 nM | Cc1cc(CC(=O)N2C[C@H](Cc3ccccc3)C[C@H]2C(=O)Nc2ccc(Oc3ccc(F)cc3)cc2)on1 [Compound 32, (2S,4R)-4-benzyl-N-(4-(4-fluorophenoxy)phenyl)-1-(2-(3-methylisoxazol-5-yl)acetyl)pyrrolidine-2-carboxamide] |
| ≤ 300 nM | O=C(Nc1ccc(Oc2ccc(F)cc2)cc1)[C@@H]1C[C@@H](Cc2ccccc2)CN1C(=O)CCCc1ccc2c(c1)OCCO2 [Compound 33, (2S,4R)-4-benzyl-1-(4-(2,3-dihydrobenzo[b][1,4]dioxin-6-yl)butanoyl)-N-(4-(4-fluorophenoxy)phenyl)pyrrolidine-2-carboxamide] |
| ≤ 300 nM | O=C(Nc1ccc(Oc2ccc(F)cc2)cc1)[C@@H]1C[C@@H](Cc2ccccc2)CN1C(=O)CC(F)(F)F [Compound 34, (2S,4R)-4-benzyl-N-(4-(4-fluorophenoxy)phenyl)-1-(3,3,3-trifluoropropanoyl)pyrrolidine-2-carboxamide] |
| ≤ 300 nM | CN(C)c1ccc(CC(=O)N2C[C@H](Cc3ccccc3)C[C@H]2C(=O)Nc2ccc(Oc3ccc(F)cc3)cc2)cc1 [Compound 35, (2S,4R)-4-benzyl-1-(2-(4-(dimethylamino)phenyl)acetyl)-N-(4-(4-fluorophenoxy)phenyl)pyrrolidine-2-carboxamide] |
| ≤ 300 nM | O=C(Nc1ccc(Oc2ccc(F)cc2)cc1)[C@@H]1C[C@@H](Cc2ccccc2)CN1C(=O)C1CCOC1 (stereo partly drawn) [Compound 36, (2S,4R)-4-benzyl-N-(4-(4-fluorophenoxy)phenyl)-1-(tetrahydrofuran-3-carbonyl)pyrrolidine-2-carboxamide] |
| ≤ 300 nM | Cc1[nH]c2ccccc2c1CC(=O)N1C[C@H](Cc2ccccc2)C[C@H]1C(=O)Nc1ccc(Oc2ccc(F)cc2)cc1 [Compound 37, (2S,4R)-4-benzyl-N-(4-(4-fluorophenoxy)phenyl)-1-(2-(2-methyl-1H-indol-3-yl)acetyl)pyrrolidine-2-carboxamide] |
| ≤ 300 nM | O=C1CC[C@@H](C(=O)N2C[C@H](Cc3ccccc3)C[C@H]2C(=O)Nc2ccc(Oc3ccc(F)cc3)cc2)O1 [Compound 39, (2S,4R)-4-benzyl-N-(4-(4-fluorophenoxy)phenyl)-1-((S)-5-oxotetrahydrofuran-2-carbonyl)pyrrolidine-2-carboxamide] |
| ≤ 300 nM | O=C(Nc1ccc(Oc2ccc(F)cc2)cc1)[C@@H]1C[C@@H](Cc2ccccc2)CN1C(=O)[C@H](O)c1ccccc1 [Compound 40, (2S,4R)-4-benzyl-N-(4-(4-fluorophenoxy)phenyl)-1-((R)-2-hydroxy-2-phenylacetyl)pyrrolidine-2-carboxamide] |
| ≤ 300 nM | Cc1ccccc1C[C@@H]1C[C@@H](C(=O)Nc2ccc(Oc3ccc(F)cc3)cc2)N(C(=O)Cn2nccn2)C1 [Compound 48, (2S,4R)-1-(2-(2H-1,2,3-triazol-2-yl)acetyl)-N-(4-(4-fluorophenoxy)phenyl)-4-(2-methylbenzyl)pyrrolidine-2-carboxamide] |
| ≤ 300 nM | O=C(Nc1ccc(Oc2ccc(F)cc2)cc1)[C@@H]1C[C@@H](Cc2cccc(F)c2)CN1C(=O)Cn1nccn1 [Compound 49, (2S,4R)-1-(2-(2H-1,2,3-triazol-2-yl)acetyl)-4-(3-fluorobenzyl)-N-(4-(4-fluorophenoxy)phenyl)pyrrolidine-2-carboxamide] |
| ≤ 300 nM | O=C(Nc1ccc(Oc2ccc(F)cc2)cc1)[C@@H]1C[C@@H](Cc2ccc(F)cc2)CN1C(=O)Cn1nccn1 [Compound 50, (2S,4R)-1-(2-(2H-1,2,3-triazol-2-yl)acetyl)-4-(4-fluorobenzyl)-N-(4-(4-fluorophenoxy)phenyl)pyrrolidine-2-carboxamide] |
